Test results reported in patent US20090087845A1, “Genetic Markers Of True Low Birth Weight” (priority 2005, published 2009).
Several values for one entry are separate records, joined by “and”; a condition that tells them apart may be missing. Equal values may be shown once.

Tested on: placental gene expression
Experiment: Placental gene expression (Affymetrix Rat Genome Chip 230.2) after SSRI (fluoxetine) exposure throughout gestation
Assay type: in vivo
Description: Gene expression data from pregnant rats under different forms of dietary restriction was gathered. […] (N=8) • Group 2 (CR50): Rats Given 50% of their Normal Daily Intake of Food. (N=5) • Group 3 (CR70): Rats Given 70% of their Normal Daily Intake of Food. […] (N=6) Placentas from the rats of each Group were harvested on Day 21 of gestation. RNA was extracted and gene expression was measured based on hybridization of RNA to Affymetrix Rat Genome Chips™ (230.2) (Affymetrix, Santa Clara, Calif.).
In order to determine whether placental gene expression profiling can be used to identify other prenatal exposures such as toxicants and drugs, a group of rats with drug exposure was monitored as described above. […] As with control, CR50, CR70, and HF groups, placentas from the mothers were sampled after 21 days of gestation and gene expression monitored utilizing an Affymetrix Rat Genome Chip.

[1] = placenta, SSRI exposure during gestation, each SSRI column = one sample

Structure (SMILES): CNCCC(Oc1ccc(C(F)(F)F)cc1)c1ccccc1 (centres unmarked) [fluoxetine, Fluoxetine]
- Probeset 1391509_at expression (SSRI exposure during gestation): 8.436 and 8.44 and 8.929 and 8.687 and 8.508 and 8.574
- Probeset 1391678_at expression (SSRI exposure during gestation): 7.246 and 7.316 and 7.365 and 7.475 and 7.387 and 7.426
- Probeset 1391962_at expression (SSRI exposure during gestation): 3.906 and 3.859 and 3.835 and 3.838 and 3.857 and 3.918
- Probeset 1392950_at expression (SSRI exposure during gestation): 3.887 and 3.884 and 3.809 and 3.812 and 3.82 and 3.885
- Probeset 1393104_at expression (SSRI exposure during gestation): 5.976
- Probeset 1393428_at expression (SSRI exposure during gestation): 6.023 and 6.1025 and 6.34 and 6.137 and 6.165 and 5.935
- Probeset 1393438_at expression (SSRI exposure during gestation): 5.322 and 5.381 and 5.359 and 5.376 and 5.366 and 5.287
- Probeset 1393539_at expression (SSRI exposure during gestation): 5.342 and 5.53 and 5.247 and 5.255 and 5.363 and 5.602
- Probeset 1393939_at expression (SSRI exposure during gestation): 4.456 and 4.322 and 4.388 and 4.385 and 4.239 and 4.386
- Probeset 1393989_at expression (SSRI exposure during gestation): 7.171 and 6.991 and 7.091 and 6.963 and 7.057 and 6.799
- Probeset 1394343_s_at expression (SSRI exposure during gestation): 3.578 and 3.612 and 3.498 and 3.586 and 3.588 and 3.604
- Probeset 1394383_at expression (SSRI exposure during gestation): 6.226 and 6.542 and 6.277 and 5.892 and 6.155 and 6.124
- Probeset 1394790_at expression (SSRI exposure during gestation): 6.517 and 6.383 and 6.546 and 6.377 and 6.521 and 6.433
- Probeset 1394887_x_at expression (SSRI exposure during gestation): 4.369 and 4.298 and 4.253 and 4.258 and 4.269 and 4.251
- Probeset 1395316_at expression (SSRI exposure during gestation): 7.327 and 7.192 and 7.672 and 7.075 and 7.225 and 7.176
- Probeset 1396130_at expression (SSRI exposure during gestation): 3.997 and 4.12 and 3.89 and 3.815 and 3.974 and 3.921
- Probeset 1397268_at expression (SSRI exposure during gestation): 5.157 and 5.261 and 5.068 and 4.99 and 5.173 and 4.92
- Probeset 1397587_at expression (SSRI exposure during gestation): 7.542 and 7.104 and 7.072 and 7.17 and 7.225 and 6.496
- Probeset 1397676_at expression (SSRI exposure during gestation): 4.933 and 5.266 and 5.715 and 5.112 and 5.274 and 5.346
- Probeset 1397934_at expression (SSRI exposure during gestation): 8.299 and 8.221 and 8.122 and 8.187 (2×) and 8.222
- Probeset 1397956_at expression (SSRI exposure during gestation): 6.013 and 6.031 and 6.26 and 5.9 and 5.674 and 6.039
- Probeset 1398025_at expression (SSRI exposure during gestation): 7.379 and 7.277 and 7.364 and 7.102 and 7.172 and 7.095
- Probeset 1398136_at expression (SSRI exposure during gestation): 4.109 and 4.099 and 4.035 and 4.047 and 4.062 and 4.154
- Probeset 1398208_s_at expression (SSRI exposure during gestation): 6.851 and 6.897 and 7.112 and 6.972 and 6.892 and 7.056
- Probeset 1398486_at expression (SSRI exposure during gestation): 4.355 and 4.744 and 5.032 and 4.741 and 4.49 and 5.709
- Probeset 1398949_at expression (SSRI exposure during gestation): 8.606 and 8.576 and 8.664 and 8.941 and 8.595 and 8.818
- Probeset 1399108_at expression (SSRI exposure during gestation): 7.198 and 7.34 and 7.479 and 7.32 and 7.149 and 7.206
- Probeset 1368198_at expression value [1]: 5.473 and 5.314 and 5.48 and 5.486
- Probeset 1368824_at expression value [1]: 10.44 and 10.31 and 10.75 and 10.8577 and 10.39 and 10.8
- Probeset 1369775_at expression value [1]: 9.454 and 9.493 and 9.497 and 9.711 and 9.436 and 9.608
- Probeset 1370317_at expression value [1]: 8.582 and 8.538 and 9.288 and 9.274 and 9.399 and 9.017
- Probeset 1370918_a_at expression value [1]: 11.48 and 11.57 and 11.99 and 11.82 and 11.71 and 11.77
- Probeset 1371174_s_at expression value [1]: 5.805 and 5.865 and 5.868
- Probeset 1373572_at expression value [1]: 8.281 and 8.071 and 8.726 and 8.553 and 8.626 and 8.452
- Probeset 1373647_at expression value [1]: 8.537 and 8.662 and 9.067 and 8.963 and 8.812 and 8.988
- Probeset 1375178_at expression value [1]: 5.304 and 5.523 and 5.583 and 5.437 and 5.444 and 5.62
- Probeset 1376622_at expression value [1]: 8.516 and 8.814 and 8.398 and 8.068 and 8.494 and 8.379
- Probeset 1376661_at expression value [1]: 8.407 and 8.641 and 7.86 and 7.94 and 7.632 and 8.114
- Probeset 1377365_at expression value [1]: 5.846 and 5.083 and 5.532 and 6.127 and 5.643 and 5.687
- Probeset 1378200_at expression value [1]: 3.755 and 3.651 and 3.848 and 3.847 and 4.036 and 3.882
- Probeset 1378906_at expression value [1]: 3.9529 and 3.997 and 3.87 and 3.96 and 3.996 and 3.763
- Probeset 1379691_at expression value [1]: 5.812 and 5.91 and 6.656 and 6.738 and 5.925 and 6.573
- Probeset 1379822_at expression value [1]: 4.961 and 4.831 and 5.299 and 4.848 and 5.227 and 5.084
- Probeset 1380175_at expression value [1]: 4.934 and 4.975 and 4.85 and 4.93 and 4.966 and 4.859
- Probeset 1381456_at expression value [1]: 5.822 and 5.673 and 5.76 and 5.587 and 5.629 and 5.737
- Probeset 1381492_at expression value [1]: 3.536 and 3.464 and 3.556 and 3.687 and 3.747 and 3.65
- Probeset 1382156_at expression value [1]: 4.178 and 4.6 and 4.28 and 4.232 and 4.706 and 4.384
- Probeset 1382670_at expression value [1]: 8.21 and 8.049 and 7.137 and 7.314 and 7.643 and 7.446
- Probeset 1383054_at expression value [1]: 9.672 and 9.605 and 9.479 and 9.484 and 9.46 and 9.528
- Probeset 1383329_at expression value [1]: 5.299 and 5.567 and 5.281 (2×) and 5.561 and 5.339
- Probeset 1384137_at expression value [1]: 3.89 and 3.899
- Probeset 1384367_at expression value [1]: 5.152 and 5.5769 and 5.098 and 5.103 and 5.137 and 5.449
- Probeset 1384573_at expression value [1]: 9.396 and 9.335 and 9.669 and 9.82 and 10.3 and 9.808
- Probeset 1385074_at expression value [1]: 6.094 and 5.703 and 6.069 and 5.946 and 6.214 and 6.404
- Probeset 1385290_at expression value [1]: 5.664 (2×) and 5.339 and 5.511 and 5.599 and 5.438
- Probeset 1385386_at expression value [1]: 4.05 and 4.2 and 4.368 and 4.404 and 4.111 and 4.351
- Probeset 1385391_at expression value [1]: 5.218 and 4.757 and 4.618
- Probeset 1385790_at expression value [1]: 8.262 and 8.645 and 8.217 and 8.093 and 8.254 and 8.458
- Probeset 1387693_a_at expression value [1]: 4.775 and 5.713 and 5.222 and 5.079 and 4.944 and 5.129
- Probeset 1387694_at expression value [1]: 5.039 and 4.874 and 4.919 and 4.933 and 5.073 and 4.691
- Probeset 1387822_at expression value [1]: 5.838 and 6.319 and 5.874 and 5.79 and 5.5082 and 5.909
- Probeset 1387836_at expression value [1]: 6.664 and 6.515 and 7.321 and 7.12 and 6.632 and 6.906
- Probeset 1387914_at expression value [1]: 7.456 and 7.375 and 7.641 and 7.405 and 7.42 and 7.231
- Probeset 1388131_at expression value [1]: 5.482 and 5.724 and 5.628 and 5.313 and 5.378 and 5.32
- Probeset 1388363_at expression value [1]: 8.48 and 8.558 and 9.033 and 9.198 and 8.642 and 9.018
- Probeset 1388669_at expression value [1]: 7.943 and 7.729 and 8.56 and 8.668 and 8.519 and 8.408
- Probeset 1389213_at expression value [1]: 7.554 and 7.674 and 7.18 and 7.082 and 7.285 and 7.531
- Probeset 1389599_at expression value [1]: 6.535 and 6.776 and 5.918 and 6.015 and 6.327 and 6.205
- Probeset 1390406_at expression value [1]: 10.62 (2×) and 11.01 and 10.93 and 11.3 and 11.1
- Probeset 1390477_at expression value [1]: 5.088 and 5.213 and 4.637 and 4.864 and 4.99 and 4.712
- Probeset 1390592_at expression value [1]: 9.083 and 9.085 and 9.028 and 9.301
- Probeset 1391283_at expression value [1]: 5.168 and 5.671 and 5.216 and 5.355 and 5.486 and 5.461
- Probeset 1391509_at expression value [1]: 7.81 and 8.329 and 7.825 and 7.918 and 8.117 and 8.184
- Probeset 1391678_at expression value [1]: 6.728 and 7.03 and 6.037 and 5.684 and 5.954 and 6.264
- Probeset 1391962_at expression value [1]: 4.079 and 4.011 and 3.937 and 4.018 and 4.024 and 3.918
- Probeset 1393428_at expression value [1]: 6.698 and 6.377 and 7.114 and 7.29 and 7.299 and 6.755
- Probeset 1393438_at expression value [1]: 5.068 and 5.185 and 5.0534 and 5.206 and 4.959 and 5.153
- Probeset 1394343_s_at expression value [1]: 3.666 and 3.629 and 3.872 and 3.785 and 3.852 and 3.841
- Probeset 1394383_at expression value [1]: 5.713 and 6.062 and 5.324 and 5.199 and 5.6 and 5.247
- Probeset 1394887_x_at expression value [1]: 4.063 and 4.143 and 3.656 and 3.536 and 3.475 and 3.919
- Probeset 1395817_at expression value [1]: 6.714 and 6.49 and 6.649
- Probeset 1396130_at expression value [1]: 3.756 and 3.764 and 3.744 and 3.847 and 3.746 and 3.741
- Probeset 1397268_at expression value [1]: 4.565 and 5.072 and 4.482 and 4.73 and 4.645 and 4.567
- Probeset 1397587_at expression value [1]: 6.561 and 6.659 and 6.326 and 6.196 and 6.181 and 6.179
- Probeset 1397934_at expression value [1]: 8.072 and 8.118 and 7.76 and 7.912 and 7.673 and 7.856
- Probeset 1398136_at expression value [1]: 4.139 and 4.205 and 4.178 and 4.175 and 4.278 and 4.212
- Probeset 1398486_at expression value [1]: 5.62 and 5.739 and 6.477 and 7.05 and 7.673 and 6.597
- Probeset 1398949_at expression value [1]: 9.031 and 8.874 and 9.095 and 9.297 and 9.003 and 9.17
- expression, probeset 368199_at (placenta, SSRI-exposed samples): 8.586 and 8.944 and 9.045 and 9.265 and 9.277 and 9.377
- expression, probeset 1367489_at (placenta, SSRI-exposed samples): 7.839 and 8.052 and 7.771 and 7.614 and 7.86 and 7.738
- expression, probeset 1367856_at (placenta, SSRI-exposed samples): 9.745 and 9.797 and 10.22 and 10.51 and 10.38 and 10.14
- expression, probeset 1367866_at (placenta, SSRI-exposed samples): 5.591 and 5.571
- expression, probeset 1367877_at (placenta, SSRI-exposed samples): 9.4471 and 9.923 and 9.622 and 8.883 and 9.902 and 8.73
- expression, probeset 1367978_at (placenta, SSRI-exposed samples): 5.914 and 6.324 and 5.574 and 5.778 and 5.944 and 5.842
- expression, probeset 1368083_at (placenta, SSRI-exposed samples): 8.501 and 8.375 and 9.053 and 8.928 and 9.103 and 8.728
- expression, probeset 1368397_at (placenta, SSRI-exposed samples): 3.806 and 3.897 and 3.87 and 3.843 and 3.78 and 3.762
- expression, probeset 1368542_at (placenta, SSRI-exposed samples): 6.355 and 7.586 and 6.712 and 6.347 and 6.563 and 7.001
- expression, probeset 1368646_at (placenta, SSRI-exposed samples): 5.644 and 5.882 and 5.515 and 5.483 and 5.352 and 5.292
